Measured values reported in paper PMC9293752, “Cholenic acid derivative UniPR1331 impairs tumor angiogenesis via blockade of VEGF/VEGFR2 in addition to Eph/ephrin” (Cancer Gene Therapy, 2021).

Target: T1, VEGFR2 (Homo sapiens, UniProt P35968)
T1 construct: gene KDR; monomeric recombinant form of the extracellular portion of VEGFR2 fused to Fc
Test: SPR (BIAcore X100), steady-state Scatchard analysis; supported by VEGF/VEGFR2 ELISA displacement (IC50 […])
Assay type: binding

T1 sequence (P35968 20-764 limits assumed): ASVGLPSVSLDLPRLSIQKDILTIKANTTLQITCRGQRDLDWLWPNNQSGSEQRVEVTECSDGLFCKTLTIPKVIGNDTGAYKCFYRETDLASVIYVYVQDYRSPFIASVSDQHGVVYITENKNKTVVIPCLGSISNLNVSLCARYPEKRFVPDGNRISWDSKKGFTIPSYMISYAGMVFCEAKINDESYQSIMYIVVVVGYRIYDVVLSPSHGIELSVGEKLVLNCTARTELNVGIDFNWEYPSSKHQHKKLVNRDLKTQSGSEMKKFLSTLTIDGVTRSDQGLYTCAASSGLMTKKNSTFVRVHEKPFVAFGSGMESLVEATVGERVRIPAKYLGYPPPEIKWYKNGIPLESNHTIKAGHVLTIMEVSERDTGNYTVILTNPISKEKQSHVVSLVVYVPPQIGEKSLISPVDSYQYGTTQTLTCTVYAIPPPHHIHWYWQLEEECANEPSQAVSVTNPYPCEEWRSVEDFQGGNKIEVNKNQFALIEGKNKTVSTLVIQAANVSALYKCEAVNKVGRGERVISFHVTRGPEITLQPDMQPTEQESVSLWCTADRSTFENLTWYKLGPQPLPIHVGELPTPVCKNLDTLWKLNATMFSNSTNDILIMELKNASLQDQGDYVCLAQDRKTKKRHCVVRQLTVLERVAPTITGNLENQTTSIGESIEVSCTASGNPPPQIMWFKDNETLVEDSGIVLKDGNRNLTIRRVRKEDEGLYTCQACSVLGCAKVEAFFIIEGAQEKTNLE

**Q.** With C[C@H](CCC(=O)N[C@@H](Cc1c[nH]c2ccccc12)C(=O)O)[C@H]1CC[C@H]2[C@@H]3CC=C4C[C@@H](O)CC[C@]4(C)[C@H]3CC[C@]12C [UniPR1331] as the compound, how does the Kd read?
**A.** 62.2 ± 2.1 µM
